In one series the test system is HIV-IIIb. The series is described as follows: Test A: Antiviral Assay in MT4 Cells. Type of series: cell-based, HIV-1. The note with it: read-out: % inhibition at 0.2 μM (percent inhibition of virus-induced cell killing). The essentials:
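MT-4 cells were preinfected with HIV-IIIb […]. Cell viability, as protection from viral cytopathic effect, was read by CellTiter-Glo chemiluminescence.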

The nature of series [1]: Test B: Cytotoxicity Assay. Type of series: cell-based. The note with it: human, uninfected MT-4 cells, CellTiter-Glo. Here is the method: Test B: Cytotoxicity Assay Compound cytotoxicity and the corresponding CC50 values was determined using the same protocol as described in the antiviral assay (Test A) except that uninfected cells were used.
The mark [2] stands for this setting: Human immunodeficiency virus 1, MT4, 120 h, 0.2 μM drug concentration, MT-4 cells infected with HIV-IIIb, 5 days, values normalized to 100%, average over time.
Where [3] appears, read: Human immunodeficiency virus 1, IIIB, MT4, 120 h.

Read-outs that look alike come from different tables or passages of the source.

13 molecules from patent US9873680B2 (Gilead Sciences, Inc., priority 2014, dated 2018) can be followed below.

Regarding `Cn1nc(NS(C)(=O)=O)c2c(Cl)ccc(-c3ccc(C#CC4(O)CO[C@H]5OCC[C@H]54)nc3[C@H](Cc3cc(F)cc(F)c3)NC(=O)Cn3nc(C(F)(F)F)c4c3C(F)(F)[C@@H]3C[C@H]43)c21` (stereo partly drawn) [Compound 50B, N-((1S)-1-(3-(4-chloro-1-methyl-3-(methylsulfonamido)-1H-indazol-7-yl)-6-(((3aS,6aR)-3-hydroxyhexahydrofuro[2,3-b]furan-3-yl)ethynyl)pyridin-2-yl)-2-(3,5-difluorophenyl)ethyl)-2-((3bS,4aR)-5,5-difluoro-3-(trifluoromethyl)-3b,4,4a,5-tetrahydro-1H-cyclopropa[3,4]cyclopenta[1,2-c]pyrazol-1-yl)acetamide], the inhibition at 0.2 µM with HIV-IIIb (setting [2]) is 92%. In series [1], it took 10 µM to reach half-maximal cytotoxicity (CC50 at 5 days).
The corresponding values for `Cn1nc(NS(C)(=O)=O)c2c(Cl)ccc(-c3ccc(C#CC4(O)CC5(COC5)C4)nc3[C@H](Cc3cc(F)cc(F)c3)NC(=O)Cn3nc(C(F)(F)F)c4c3C(F)(F)[C@@H]3C[C@H]43)c21` [Compound 51B, N—((S)-1-(3-(4-chloro-1-methyl-3-(methylsulfonamido)-1H-indazol-7-yl)-6-((6-hydroxy-2-oxaspiro[3.3]heptan-6-yl)ethynyl)pyridin-2-yl)-2-(3,5-difluorophenyl)ethyl)-2-((3bS,4aR)-5,5-difluoro-3-(trifluoromethyl)-3b,4,4a,5-tetrahydro-1H-cyclopropa[3,4]cyclopenta[1,2-c]pyrazol-1-yl)acetamide] are 89% and 19.8 µM.
`Cn1nc(NS(C)(=O)=O)c2c(Cl)ccc(-c3ccc(C#CC4(O)CO[C@H]5OCC[C@H]54)nc3[C@H](Cc3cc(F)cc(F)c3)NC(=O)Cn3nc(C(F)F)c4c3C(F)(F)[C@@H]3C[C@H]43)c21` (stereo partly drawn) [Compound 52, N-((1S)-1-(3-(4-chloro-1-methyl-3-(methylsulfonamido)-1H-indazol-7-yl)-6-(((3aS,6aR)-3-hydroxyhexahydrofuro[2,3-b]furan-3-yl)ethynyl)pyridin-2-yl)-2-(3,5-difluorophenyl)ethyl)-2-((3bS,4aR)-3-(difluoromethyl)-5,5-difluoro-3b,4,4a,5-tetrahydro-1H-cyclopropa[3,4]cyclopenta[1,2-c]pyrazol-1-yl)acetamide]: the inhibition at 0.2 µM in the series on HIV-IIIb (setting [2]) is 96%. The molecule further gave a 50% cytotoxic concentration (CC50) at 5 days in series [1] of 17.1 µM.
In the same order, the values of `Cn1nc(NS(C)(=O)=O)c2c(Cl)ccc(-c3ccc(C#CC4CNCCO4)nc3[C@H](Cc3cc(F)cc(F)c3)NC(=O)Cn3nc(C(F)(F)F)c4c3C(F)(F)[C@@H]3C[C@H]43)c21` (stereo partly drawn) [Compound 53B, N-((1S)-1-(3-(4-chloro-1-methyl-3-(methylsulfonamido)-1H-indazol-7-yl)-6-(morpholin-2-ylethynyl)pyridin-2-yl)-2-(3,5-difluorophenyl)ethyl)-2-((3bS,4aR)-5,5-difluoro-3-(trifluoromethyl)-3b,4,4a,5-tetrahydro-1H-cyclopropa[3,4]cyclopenta[1,2-c]pyrazol-1-yl)acetamide] are 100% and 6.81 µM.
The corresponding values for `Cn1nc(NS(C)(=O)=O)c2c(Cl)ccc(-c3ccc(C#CC(C)(O)c4ccco4)nc3[C@H](Cc3cc(F)cc(F)c3)NC(=O)Cn3nc(C(F)(F)F)c4c3C(F)(F)[C@@H]3C[C@H]43)c21` (stereo partly drawn) [Compound 54, N-((1S)-1-(3-(4-chloro-1-methyl-3-(methylsulfonamido)-1H-indazol-7-yl)-6-(3-(furan-2-yl)-3-hydroxybut-1-yn-1-yl)pyridin-2-yl)-2-(3,5-difluorophenyl)ethyl)-2-((3bS,4aR)-5,5-difluoro-3-(trifluoromethyl)-3b,4,4a,5-tetrahydro-1H-cyclopropa[3,4]cyclopenta[1,2-c]pyrazol-1-yl)acetamide] are 100% and 11.6 µM.
In the same order, the values of `CC(=O)N1CCCC1C#Cc1ccc(-c2ccc(Cl)c3c(NS(C)(=O)=O)nn(C)c23)c([C@H](Cc2cc(F)cc(F)c2)NC(=O)Cn2nc(C(F)(F)F)c3c2C(F)(F)[C@@H]2C[C@H]32)n1` (stereo partly drawn) [Compound 55, N-((1S)-1-(6-((1-acetylpyrrolidin-2-yl)ethynyl)-3-(4-chloro-1-methyl-3-(methylsulfonamido)-1H-indazol-7-yl)pyridin-2-yl)-2-(3,5-difluorophenyl)ethyl)-2-((3bS,4aR)-5,5-difluoro-3-(trifluoromethyl)-3b,4,4a,5-tetrahydro-1H-cyclopropa[3,4]cyclopenta[1,2-c]pyrazol-1-yl)acetamide] are 88% and 9.94 µM.
Turning to `Cn1cnc(C(O)C#Cc2ccc(-c3ccc(Cl)c4c(NS(C)(=O)=O)nn(C)c34)c([C@H](Cc3cc(F)cc(F)c3)NC(=O)Cn3nc(C(F)(F)F)c4c3C(F)(F)[C@@H]3C[C@H]43)n2)c1` (stereo partly drawn) [Compound 56B, N-((1S)-1-(3-(4-chloro-1-methyl-3-(methylsulfonamido)-1H-indazol-7-yl)-6-(3-hydroxy-3-(1-methyl-1H-imidazol-4-yl)prop-1-yn-1-yl)pyridin-2-yl)-2-(3,5-difluorophenyl)ethyl)-2-((3bS,4aR)-5,5-difluoro-3-(trifluoromethyl)-3b,4,4a,5-tetrahydro-1H-cyclopropa[3,4]cyclopenta[1,2-c]pyrazol-1-yl)acetamide], the inhibition at 0.2 µM in the series with HIV-IIIb (setting [2]) was found to be 84%. Moreover, it took 9.02 µM to reach half-maximal cytotoxicity in series [1] (CC50 at 5 days).
Consider `Cn1nc(O)c2c(Cl)ccc(-c3ccc(C#CC4(O)CCOCC4)nc3[C@H](Cc3cc(F)cc(F)c3)NC(=O)Cn3nc(C(F)(F)F)c4c3CCCC4)c21` [Compound 57, (S)—N-(1-(3-(4-chloro-3-hydroxy-1-methyl-1H-indazol-7-yl)-6-((4-hydroxytetrahydro-2H-pyran-4-yl)ethynyl)pyridin-2-yl)-2-(3,5-difluorophenyl)ethyl)-2-(3-(trifluoromethyl)-4,5,6,7-tetrahydro-1H-indazol-1-yl)acetamide], for which the inhibition at 0.2 µM in the series with HIV-IIIb (setting [3]) is 100%. In series [1], this molecule gave a CC50 at 5 days of 21 µM.
`Cn1nc(NS(C)(=O)=O)c2c(Cl)ccc(-c3ccc(C#CC4(O)CCNC4)nc3[C@H](Cc3cc(F)cc(F)c3)NC(=O)Cn3nc(C(F)(F)F)c4c3C(F)(F)[C@@H]3C[C@H]43)c21` (stereo partly drawn) [Compound 58, N-((1S)-1-(3-(4-chloro-1-methyl-3-(methylsulfonamido)-1H-indazol-7-yl)-6-((3-hydroxypyrrolidin-3-yl)ethynyl)pyridin-2-yl)-2-(3,5-difluorophenyl)ethyl)-2-((3bS,4aR)-5,5-difluoro-3-(trifluoromethyl)-3b,4,4a,5-tetrahydro-1H-cyclopropa[3,4]cyclopenta[1,2-c]pyrazol-1-yl)acetamide]: in the series with HIV-IIIb (setting [2]), the inhibition at 0.2 µM came out at 91%. This molecule also registered a 50% cytotoxic concentration (CC50) at 5 days in series [1] of 5.19 µM.
The corresponding values for `Cn1nc(NS(C)(=O)=O)c2c(Cl)ccc(-c3ccc(C#CC(C)(O)C4CC4)nc3[C@H](Cc3cc(F)cc(F)c3)NC(=O)Cn3nc(C(F)(F)F)c4c3C(F)(F)[C@@H]3C[C@H]43)c21` (stereo partly drawn) [Compound 59, N-((1S)-1-(3-(4-chloro-1-methyl-3-(methylsulfonamido)-1H-indazol-7-yl)-6-(3-cyclopropyl-3-hydroxybut-1-yn-1-yl)pyridin-2-yl)-2-(3,5-difluorophenyl)ethyl)-2-((3bS,4aR)-5,5-difluoro-3-(trifluoromethyl)-3b,4,4a,5-tetrahydro-1H-cyclopropa[3,4]cyclopenta[1,2-c]pyrazol-1-yl)acetamide] are 95% and 10.2 µM.
Regarding `Cn1nc(NS(C)(=O)=O)c2c(Cl)ccc(-c3ccc(C#CC(C)(C)N4CCOC4=O)nc3[C@H](Cc3cc(F)cc(F)c3)NC(=O)Cn3nc(C(F)F)c4c3C(F)(F)[C@@H]3C[C@H]43)c21` [Compound 60D, N—((S)-1-(3-(4-chloro-1-methyl-3-(methylsulfonamido)-1H-indazol-7-yl)-6-(3-methyl-3-(2-oxooxazolidin-3-yl)but-1-yn-1-yl)pyridin-2-yl)-2-(3,5-difluorophenyl)ethyl)-2-((3bS,4aR)-3-(difluoromethyl)-5,5-difluoro-3b,4,4a,5-tetrahydro-1H-cyclopropa[3,4]cyclopenta[1,2-c]pyrazol-1-yl)acetamide], the inhibition at 0.2 µM in the series with HIV-IIIb (setting [3]) came to 94%. For the same molecule, the CC50 at 5 days in series [1] was > 27.8 µM.
In the case of `Cn1nc(NS(C)(=O)=O)c2c(Cl)ccc(-c3ccc(C#CC4(O)CCC4)nc3[C@H](Cc3cc(F)cc(F)c3)NC(=O)Cn3nc(C(F)(F)F)c4c3C(F)(F)[C@@H]3C[C@H]43)c21` [Compound 61C, N—((S)-1-(3-(4-chloro-1-methyl-3-(methylsulfonamido)-1H-indazol-7-yl)-6-((1-hydroxycyclobutyl)ethynyl)pyridin-2-yl)-2-(3,5-difluorophenyl)ethyl)-2-((3bS,4aR)-5,5-difluoro-3-(trifluoromethyl)-3b,4,4a,5-tetrahydro-1H-cyclopropa[3,4]cyclopenta[1,2-c]pyrazol-1-yl)acetamide], the inhibition at 0.2 µM in the series with HIV-IIIb (setting [2]) is 93%. Besides, it took 7.89 µM to reach half-maximal cytotoxicity in series [1] (CC50 at 5 days).
The corresponding values for `Cn1nc(NS(C)(=O)=O)c2c(Cl)ccc(-c3ccc(C#CC4(O)CC4)nc3[C@H](Cc3cc(F)cc(F)c3)NC(=O)Cn3nc(C(F)F)c4c3C(F)(F)[C@@H]3C[C@H]43)c21` [Compound 62B, N—((S)-1-(3-(4-chloro-1-methyl-3-(methylsulfonamido)-1H-indazol-7-yl)-6-((1-hydroxycyclopropyl)ethynyl)pyridin-2-yl)-2-(3,5-difluorophenyl)ethyl)-2-((3bS,4aR)-3-(difluoromethyl)-5,5-difluoro-3b,4,4a,5-tetrahydro-1H-cyclopropa[3,4]cyclopenta[1,2-c]pyrazol-1-yl)acetamide] are 93% and 14.9 µM.

As a reminder, the inhibition is the percentage by which the read-out fell short of the control. For orientation: CC50 means the concentration that lowers cell viability or growth by half. A higher CC50 goes with lower toxicity to the cells.
